Measurements as given in US11857601B2, “Pharmaceutical composition for cancer treatment comprising fusion protein including IL-2 protein and CD80 protein and anticancer drug” (GI INNOVATION, INC., priority 2020, dated 2024).

What was measured:
[1] = test system: CD8+ T cells and CD4+/FoxP3+ Treg cells; assay: Proliferation of CD8+ T cells and Treg cells in PBMCs (Exp. Ex. 10); format: cell-based, human
Procedure: Human PBMCs were purchased from Allcells (Lot #3014928, USA). […] CellTrace CFSE dye was used, which was reacted with the human PBMCs under a light-blocking condition at […] for 20 minutes. The cells were labeled with CFSE by being reacted with 1 μM CellTrace CFSE dye at 37° C. for 20 minutes. CFSE not bound to the cells was removed by being reacted for 5 minutes with a culture medium having a 5-fold volume of the staining reaction solution and then by being centrifuged at 1,300 rpm for 5 minutes. The CFSE-labeled PBMCs were resuspended in the culture medium (RPMI1640 medium containing 10% fetal bovine serum, 10 mM HEPES, 100 U/ml penicillin/streptomycin, 1 mM sodium pyruvate, 55 μM 2-mercaptoethanol, 1 mM non-essential amino acid, and 2 mM L-glutamine), and then added to a 96-well microplate at 1×10^5 cells per well.
The incubated cells were examined for their degree of proliferation by measuring, with FACS analysis using anti-human CD4-PE antibody (BioLegend, USA), anti-human CD8-PE/Cy7 antibody (BioLegend, USA), and anti-human FoxP3-APC antibody (BioLegend, USA), a proportion of CD8+ T cells that had not been labeled with CFSE.

[2] = target: T1, CTLA-4 expressed on effector T cells (Homo sapiens, UniProt P16410); assay: CTLA-4 blockade bioassay; format: cell-based; details: CTLA-4 effector cells + aAPC/Raji cells, 16 hours
T1 construct: host or cells: CTLA-4 effector cells of the kit, co-cultured with aAPC/Raji cells
T1 sequence (P16410 36-223): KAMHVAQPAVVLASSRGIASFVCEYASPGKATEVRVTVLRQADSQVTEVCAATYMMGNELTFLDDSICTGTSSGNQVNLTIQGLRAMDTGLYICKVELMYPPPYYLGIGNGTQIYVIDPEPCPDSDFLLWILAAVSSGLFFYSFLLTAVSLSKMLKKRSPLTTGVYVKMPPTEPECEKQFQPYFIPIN
Procedure: An experiment was performed using a CTLA-4 blockade bioassay kit (Promega cat No. JA4005). The experiment is briefly described as follows. CTLA-4 effector cells kept in liquid nitrogen were thawed in a 37° C. constant temperature water bath for 3 minutes, and 0.8 ml of CTLA-4 effector cells were mixed well with 3.2 ml of pre-warmed assay buffer (90% RPMI+10% fetal bovine serum). Then, the mixture was added to a 96-well white cell culture plate (SPL, cat No. 30196) at 25 μl per well. Then, 25 μl of GI101 at various concentrations was added thereto. For a negative control, 25 μl of assay buffer was added thereto. Then, the 96-well white cell culture plate was covered and placed at room temperature until aAPC/Raji cells were prepared.
aAPC/Raji cells kept in liquid nitrogen were thawed in a 37° C. constant temperature water bath for 3 minutes, and 0.8 ml of aAPC/Raji cells were mixed well with 3.2 ml of pre-warmed assay buffer. Then, 25 μl of the mixture was added to the plate at per well, and reaction was allowed to proceed in a 5% CO2 incubator at 37° C. for 16 hours. […] Reaction was allowed to proceed at room temperature for 10 minutes, and then luminescence was measured with Cytation 3 (BioTek instruments, Winooski, VT, USA). […]

[3] = test system: immune cells in cancer tissues; assay: Immune cell analysis in CT-26 cancer tissue (FACS); format: in vivo, BALB/c mice
Description: The mice of each group in Experimental Example 16.1 were sacrificed when the tumor volume reached an average of 200 mm^3, and cancer tissues were collected.

[4] = test system: Renca cells; assay: mGI-101 and Lenvatinib in Renca allotransplanted tumor model; format: in vivo, BALB/c mice
Procedure: Renca cells were purchased from ATCC (USA) and cultured in RPMI1640 medium (Gibco) containing 10% FBS (Gibco) and 1% antibiotic/antifungal agent (Gibco). The cultured cells were harvested using trypsin (Gibco) and then suspended in PBS. In order to establish an allotransplanted tumor model, 5×10^6 Renca cells were subcutaneously injected into the back of BALB/c female mice (8-week-old).
A certain period of time after cell inoculation of the tumor grafts of the mice, the tumor volume was measured for animals with no abnormalities in the health condition of the animals, and the mice were randomly selected and assigned, each group including 10 mice.
The death of the mouse, the type of general symptoms, the date of onset, and the severity of symptoms were observed once a day during the test period, and recorded for each subject.
The tumor volume before administration of each subject was set as the value measured at the time of grouping, and the anti-tumor efficacy was evaluated as compared with the vehicle control.
All statistical calculations were performed using Prism 8.0 (Graph Pad Software Inc, USA). The comparison of tumor volume measurements was made through two-way analysis of variance followed by Tukey's multiple comparison test. A p value of less than 0.05 was considered significant.

[5] = test system: CT-26 cancer cell line; assay: mGI101 in mice transplanted with CT-26 (Exp. Ex. 15)
Procedure: BALB/c mice (female, 7-week-old) purchased from Orient Bio were subjected to an acclimation period of 7 days. Then, 5×10^6 cells of CT-26 cancer cell line (ATCC, USA) were mixed with 0.05 ml of […] ™ matrix phenol red-free (BD), and allotransplantation of the mixture was performed by subcutaneous administration at 0.1 ml in the right dorsal region of the mice. A certain period of time after the cancer cell transplantation, the tumor volume was measured and subjects that reached about 28 mm^3 were selected, and then the selected mice were grouped evenly based on tumor size and body weight, each group including 10 mice. Thereafter, using a disposable syringe (31G, 1 ml), hIgG4 was administered at a dose of 6 mg/kg to a negative control. For experimental groups, mGI101 at a dose of 3 mg/kg, 6 mg/kg, or 12 mg/kg was administered intravenously thereto. A total of three administrations were given once every three days after the first administration. The tumor size was measured daily.

[6] = mGI-101 twice a week (BIW), Lenvatinib daily, 10 mice per group

Substance	proportion of CD8+ T cells ([1]; anti-CD3ε 1 μg/ml, 7 days, compared with no stimulus, anti-CD3 antibody alone and GI101C1)	proliferation of CD4+/FoxP3+ Treg cells ([1]; compared with no stimulus and anti-CD3 antibody alone)	function of T cells (luminescence) [2]	CD8+ T cells in cancer tissue ([3]; 0.1 mg/kg, compared with anti-PD-1 antibody alone 5 mg/kg)	M1 macrophages ([3]; 0.1 mg/kg, vs negative control and anti-PD-1 antibody alone)	level of CD86 expression in macrophages and dendritic cells ([3]; all GI101 groups)	level of expression of IFN-γ in T cells ([3]; all GI101 groups, vs negative control)	number of mice with tumor growth inhibition rate of 30% or more ([4]; mGI-101 alone once a week) [mice]	number of mice with tumor growth inhibition rate of 50% or more ([4]; mGI-101 alone once a week) [mice]	number of mice with tumor growth inhibition rate of 80% or more ([4]; mGI-101 alone once a week) [mice]	number of mice with tumor growth inhibition rate of 30% or more [4, 6] [mice]	number of mice with tumor growth inhibition rate of 50% or more [4, 6] [mice]	number of mice with tumor growth inhibition rate of 80% or more [4, 6]	Tumor growth inhibition ([5]; 6 mg/kg and 12 mg/kg i.v., three administrations, vs negative control (hIgG4))	survival rate ([5]; 6 mg/kg i.v., vs negative control)
GI101: fusion protein: human CD80 fragment, Ig hinge, Fc domain, linker, IL-2 variant (2M) (R38A, F42A); SEQ ID NO: 9	significant increase	significant increase	activats the function of T cells rather than inhibiting the same	significant increase	increase	increased level	significantly increased level								
mGI101: fusion protein: mouse CD80, Ig hinge, Fc domain, linker, IL-2 variant (2M) (R38A, F42A); SEQ ID NO: 15								5	2	1	3	1	no mouse	significant tumor growth inhibition	significant improvement
